From patent publication US12011442B2, “Solid-state forms of Abemaciclib, their use and preparation” (MACFARLAN SMITH LIMITED, priority 2018, dated 2024)

Columns and labels:
Assay type in all cases: physicochemical
[1] = Thermogravimetric analysis (TGA), onset of decomposition; conditions: heating rate 10.0° C./min, nitrogen; FIG. 6
Method: Analysis—TGA (Thermo Gravimetric Analysis) TGA measurements are recorded using TA Q500 instrument. The samples are weighed in aluminum pans. TGA investigations are performed at a heating rate of 10.0° C./min over a temperature range of 30-350° C., purging with nitrogen at a flow rate of 60 mL/min.

[2] = Dynamic vapor sorption (DVS) / sorption isotherm
[3] = Solid-state stability of the crystalline solvate (observation); conditions: desolvates on exposure to air
Method: A variable methanol solvate of ABC is produced by dissolving ABC in warm (55° C.) methanol (about 200 mg/mL) and then cooling (−5° C.) to force precipitation of a white powder. The resulting powder is examined by XRPD while still wet (FIG. 1, top pattern). Single crystals are grown by slow evaporation of methanol into an antisolvent (preferably ethyl acetate) or by slowly cooling a saturated solution from 50° C. to 0° C. over the course of several hours, and not exposed to air, to obviate evaporation of the solvate and the collapse of the crystalline lattice. Single crystal X-ray diffraction (SCXRD) data is undertaken at 100° K to improve diffraction quality as well as prevent desolvation. […] The single crystal is determined to be Form I of variable methanol solvate of ABC (FIG. 2) having about 2.5-3 molecules of methanol, preferably about 2.75 molecules of methanol. Form I of variable methanol solvate of ABC is unstable.

onset of decomposition (TGA) [1] | H2O absorbed by weight (DVS) ([2]; between 0-90% relative humidity (RH), FIG. 7) | drop in weight during desorption ([2]; desorption at 20% RH, consistent with loss of a molecule of water) | H2O lost in one desorption step (sorption isotherm) ([2]; desorption between 30-20% RH, FIG. 8) [%] | transformation from Form II anhydrous ABC to Form III of hydrate of ABC ([2]; humidity sorption/desorption) | stability of the solid-state form [3] | SMILES
about 320 °C | about 8% | about 4% | 4 | reversible |  | CCN1CCN(Cc2ccc(Nc3ncc(F)c(-c4cc(F)c5nc(C)n(C(C)C)c5c4)n3)nc2)CC1 [Form II anhydrous ABC]
 |  |  |  |  | unstable | CCN1CCN(Cc2ccc(Nc3ncc(F)c(-c4cc(F)c5nc(C)n(C(C)C)c5c4)n3)nc2)CC1
